Source: patent US20120009271A1, “METHOD OF DISEASE-INDUCED AND RECEPTOR-MEDIATED STEM CELL NEUROPROTECTION” (MEDICAL COLLEGE OF GEORGIA, priority 2009, published 2012)
Entries after “also recorded” stand apart in the source; their conditions may differ.

Tests used:
[1] = system: cultured human amnion stem cells; test: Oxidative stress (H202) in cultured human amnion stem cells, cell survival (Hoechst 33258, trypan blue); format: cell-based; conditions: pre-treatment with melatonin 100 μM; H202 100 μM at day 4, survival at day 5; versus non-melatonin treated cells
[2] = system: OGD-exposed primary rat cells; test: Oxygen glucose deprivation (OGD) injury model, cell viability (Trypan blue and MTT assay); conditions: AECs 5,000 per well or melatonin 100 uM; 20,000 rat cells per well
Description: To reveal the neuroprotective effects of these stem cells, cultured primary rat cells (gestation age 18) were initially exposed to OGD and immediately thereafter stem cells or conditioned media (harvested from OGD-exposed stem cells over 7 days) were added. Parallel sister cultures included non-OGD exposed rat cells (positive control). Stem cell doses were varied at 0 (negative control), 2.5%, 5%, 10% or 25% of total cell population per well. After 3 hours of stem cell or conditioned media treatment, cell viability (Trypan blue and MTT assay) and ELISA were performed.
Cultured primary rat cells (gestation age 18) were initially exposed to the oxygen glucose deprivation (OGD) injury model (92% N2 and 8% O2 gas for 90 minutes), and immediately thereafter AECs, AMCs or conditioned media (harvested from AECs or AMCs cultured over 7 days) were added to the OGD-exposed cells. Parallel sister cultures included non-OGD exposed rat cells (positive control). Placenta cell doses were varied at 0 (negative control), 2.5%, 5%, 10% or 25% of total cell population per well. After 3 hours of placenta cell or conditioned media treatment, cell viability (Trypan blue and MTT assay) and ELISA were performed.
Cultured primary rat cells (gestation age 18; 20,0000 cells per well) were initially exposed to the OGD injury model (92% N2 and 8% 02 gas for 90 minutes). […]

[3] = system: cultured human amniotic epithelial cells (AECs); test: Immunocytochemistry of proliferation and differentiation of cultured AECs with or without melatonin; format: cell-based
Description: This is true for both control cells and cells treated with melatonin.

[4] = in vivo; cited from earlier work

Structure (SMILES): COc1ccc2[nH]cc(CCNC(C)=O)c2c1 [melatonin, N-acetyl-5-methoxytryptamine]
- cell survival after oxidative stress [1]: protected against cell death; also recorded: significantly greater
- neuroprotection against experimental stroke (OGD), single treatment [2]: exerted neuroprotection
- total TuJ1 positive cells in 5 fields (dendrite +/-) ([3]; 100 μM Melatonin versus control, FIG. 14A): increased the total number of cells expressing Tull
- total nestin positive or nestin/MelR1 positive cells in 5 fields ([3]; 100 μM Melatonin versus control, FIG. 14B): increases the total number of nestin positive or nestin/MelR1 positive expressing cells
- neural differentiation (TuJ1 and GFAP) of melatonin receptor 1-expressing AECs ([3]; melatonin in growth media): enhanced neural differentiation
- proliferation of melatonin receptor 1-expressing AECs ([3]; melatonin in growth media): dose-dependently suppressed proliferation
- half life [4]: 30 to 53 min
